Source: PMC6514909, “Synthesis of New Derivatives of Benzofuran as Potential Anticancer Agents” (Molecules, 2019)
“Also recorded” adds a separate entry of the source.

What was measured:
cancer cell lines = assay: MTT cytotoxicity, cancer cell lines overall; format: cell-based, human; conditions: for cytotoxic properties toward cancer cell lines: K562, MOLT-4, HeLa, MTT, 48 h
Description: (§1) Fourteen new benzofuran derivatives were tested for their cytotoxic properties in K562, MOLT-4 (leukemia, suspension cells), HeLa (cervix carcinoma, adherent cells), and normal endothelial cells (HUVEC). First, we measured the viability of cells after 48 h incubation with the given compound at the concentration of 100 μM. Next, for compounds that reduced cancer cells survival for more than 50%, we determined IC50 values. Cells that were exposed to 1% DMSO (a vehicle) served as the control with 100% survival. Cells treated with 1 µM staurosporine served as the internal control of the cytotoxicity experiments.
(§2) Human umbilical vein endothelial cells (Life Technologies, Waltham, MA, USA) were cultured (according to the manufacturer instructions) in Medium 200 supplemented with Low Serum Growth Supplement. 1 × 10^4 HUVEC cells were seeded on each well on a 96-well plate (Nunc). The HeLa (human cervix carcinoma) K562 and MOLT-4 (leukemia) cells were cultured in RPMI 1640 medium supplemented with antibiotics and 10% fetal calf serum (HeLa, K562) in a 5% CO2-95% air atmosphere. 7 × 10^3 HeLa, K562, or MOLT-4 cells were seeded on each well on 96-well plate (Nunc). 24 h later cells were treated with the test compounds and then incubated for an additional 48 hours. Stock solutions of test compounds were freshly prepared in DMSO (dimethylsulfoxide). The final concentrations of compounds that were tested in the cell cultures were: 2 × 10^−1, 1 ×10^−1, 5 × 10^−2, 1 × 10^−2, 1 × 10^−3 and 1 × 10^−4 mM. The concentration of DMSO in the cell culture medium was 1%.
(§3) The values of IC50 (the concentration of test compound that is required to reduce the cell survival fraction to 50% of the control) were calculated from dose-response curves and used as a measure of cellular sensitivity to a given treatment.
(§4) The MTT [3-(4,5-dimethylthiazol-2-yl)-2,5-diphenyltetrazolium bromide; Sigma, St. Louis, MO, USA] assay determined the cytotoxicity of all the compounds, as described previously. Briefly, after 24 h or 48 h of incubation with the drug, the cells were treated with the MTT reagent, and incubation was continued for 2 h. MTT-formazan crystals were dissolved in 20% SDS and 50% DMF at pH 4.7 and absorbance was read at 570 and 650 nm on an ELISA-PLATE READER (FLUOstar Omega, BMG LABTECH GmbH, Ortenberg, Germany). As a control (100% viability), cells that were grown in the presence of medium vehicle only with 1% DMSO were used.

[1] = tested on: HeLa (human cervix carcinoma) cells; assay: MTT cytotoxicity assay, HeLa; format: cell-based; conditions: for IC50: Homo sapiens, HeLa, 48 h incubation with cells, MTT; for reduction of viability of HeLa cells: initial screening, 100 μM, 48 h
Description: as §1, §2, §3, §4

K562 (leukemia) cells = assay: MTT cytotoxicity assay, K562; format: cell-based, human; conditions: for IC50: 48 h incubation with cells, MTT; for reduction of viability of K562 cells: initial screening, 100 μM, 48 h
Description: as §1, §2, §3, §4

MOLT-4 (leukemia) cells = assay: MTT cytotoxicity assay, MOLT-4; format: cell-based, human; conditions: for IC50: Homo sapiens, MOLT-4, 48 h incubation with cells, MTT; for reduction of viability of MOLT-4 cells: initial screening, 100 μM, 48 h
Description: as §1, §2, §3, §4

[2] = tested on: Human umbilical vein endothelial cells (HUVEC); assay: MTT cytotoxicity assay, HUVEC; format: cell-based; conditions: for IC50: Homo sapiens, HUVEC, 48 h incubation with cells, MTT; for cytotoxicity against human normal endothelial cells: initial screening, 100 μM, 48 h
Description: as §1, §2, §3, §4

[3] = tested on: caspase 3/7 in K562 cells; assay: Apo-ONE Homogeneous Caspase-3/7 Assay in K562 cells; format: cell-based, human; conditions: compound at 5 × IC50 (staurosporine 1 µM), 18 h, 1% DMSO normalized to 1.0
Description: We have measured the activity of caspases 3 and 7 (caspase 3/7), which are markers of programmed cell death. […] The activity of caspase 3/7 was measured using pro-fluorescent peptide substrate.
20 × 10^3 K562 cells were seeded on each well of 96-well plate in RPMI 1640 medium supplemented with 10% fetal calf serum and antibiotics. Cells were grown for 24 h at 37 °C and 5% CO2. The test compounds were dissolved in DMSO and added to the cell culture. The concentration of tested benzo[b]furans in cell culture was 5 × IC50.
Cells treated with 1% DMSO served as a negative control, while cells incubated with staurosporine (a strong inducer of apoptosis) were used as a positive control. Cells were exposed to test compounds for 18 h at 37 °C and 5% CO2. Subsequently, Apo-ONE® Homogeneous Caspase-3/7 Assay (Promega, Madison, WI, USA) measured the activity of caspase 3 and 7, according to the manufacturer’s instructions. Briefly, the cells were lysed and incubated for 1.5 h with profluorescent substrate for caspase 3 and 7. Next, fluorescence was read at an excitation wavelength of 485 nm and emission of 520 nm with FLUOStar Omega plate reader (BMG-Labtech, Ortenberg, Germany).
Figure 5 Activity of caspase 3 and 7 in K562 cells treated with the test benzofurans 1c, 1e, 2d, 3d, or staurosporine for 18 h. Apoptosis was determined by Apo-ONE® Homogeneous Caspase-3/7 Assay (Promega, Madison, WI, USA). Abbreviations: DMSO—K562 cells treated with 1% DMSO. The caspase activation level in cells exposed to 1% DMSO was normalized to 1.0. Mean values +/− SD are shown.

[4] = tested on: plasmid DNA (pcDNA3.1 HisC); assay: Digestion of plasmid DNA with BamHI restriction nuclease; format: biochemical; conditions: 100 µM, overnight 37 °C, then BamHI 3 h; agarose gel
Description: We hypothesized that a possible explanation of observed cytotoxicity might be due to an interaction of test benzofurans with genomic DNA (e.g., by intercalation). To verify this hypothesis, we investigated whether the test benzofurans have any effect on digestion of a plasmid DNA (pcDNA3.1 HisC) with endonuclease BamH1. pcDNA3.1 HisC contains a unique BamH1 restriction site which allows for plasmid linearization. Plasmid DNA exists in linear, superhelical, and circular forms that differ in electrophoretic mobility (Figure 6 lane 1). Plasmid DNA was converted to a linear form upon digestion with BamH1 (lane 2). […] In the presence of test compounds, pcDNA3.1 HisC was partially digested with Bam H1 restriction enzyme (Figure 6 lanes 4–7). Most of the plasmid DNA was converted to a linear form, however there is a circular form still present.
0.5 μg of plasmid DNA (pcDNAHisC, total length 5.5 kbp) containing a unique BamHI restriction site was dissolved in a 1× BamHI reaction buffer and then incubated overnight at 37 °C with the test compounds or daunorubicin, a strong intercalating agent, which was used as a positive control. The concentration of the test compounds and daunorubicin samples was 100 µM. In the next step, the reaction mixtures were digested with BamHI restriction endonuclease (2 U/μL) for 3 h at 37 °C. The total reaction volume was 10 μL. Products of the reaction were subjected to the 1% agarose gel electrophoresis in TBE buffer. The gel was stained with ethidium bromide and DNA fragments were visualized under a UV lamp (GBox, Syngene, Cambridge, UK).
Figure 6 Digestion of pcDNA3.1HisC (total length 5.5kbp) with BamH1 endonuclease. M—marker DNA; 1—not digested plasmid DNA; 2—plasmid DNA digested with BamH1 (DNA present in linear form); 3—plasmid DNA + daunorubicin + BamH1; 4—plasmid DNA + 1c + BamH1; 5—plasmid DNA + 2d + BamH1; 6—plasmid DNA + 1e + BamH1; and, 7—plasmid DNA + 3d + BamH1.

With `COc1cc2c(C)c(C(=O)O)oc2c(C(C)=O)c1OC` [Compound 1, 7-Acetyl-5,6-dimethoxy-3-methylbenzofuran-2-carboxylic acid] the melting point was 212 to 214 °C.
In the case of `COc1cc2c(C)c(C(N)=O)oc2c(C(C)=O)c1OC` [Compound 1a, 7-Acetyl-5,6-dimethoxy-3-methylbenzofuran-2-carboxamide], the “cytotoxic properties toward cancer cell lines” value (cancer cell lines) is reported as “did not show the cytotoxic properties; also recorded: loss of cytotoxic properties” and the melting point is reported as 203 to 205 °C.
With `COC(=O)c1oc2c(C(C)=O)c(OC)c(OC)cc2c1C` [Compound 1b, Methyl 7-acetyl-5,6-dimethoxy-3-methyl-1-benzofuran-2-carboxylate] the melting point was 98 to 100 °C.
With `COC(=O)c1oc2c(C(C)=O)c(OC)c(OC)cc2c1CBr` [Compound 1c, Methyl 7-acetyl-3-(bromomethyl)-5,6-dimethoxybenzofuran-2-carboxylate] the IC50 [1] was 50 µM, the “reduction of viability of HeLa cells” value [1] was “more than 50%” and the IC50 (K562 (leukemia) cells) was 25 µM. For the same compound, the IC50 (K562 (leukemia) cells; Homo sapiens, K562, 48 h) was under 50 µM, the “reduction of viability of K562 cells” value (K562 (leukemia) cells) was “more than 50%” and the IC50 (MOLT-4 (leukemia) cells) was 180 µM. For the same compound, the “reduction of viability of MOLT-4 cells” value (MOLT-4 (leukemia) cells) was “more than 50%”, the IC50 [2] was 30 µM and the “cytotoxicity against human normal endothelial cells” value [2] was “cytotoxic”. The “increase in the activity of caspase 3/7” value [3] was “about two-fold” and the “inhibition of digestion of plasmid DNA with BamH1 / interaction with DNA” value (from here on “inhibition … with BamH1 / interaction with DNA”) [4] was “to some extent, interact with DNA”.
`COc1cc2c(C)c(Br)oc2c(C(C)=O)c1OC` [Compound 1d, 1-(2-Bromo-5,6-dimethoxy-3-methylbenzofuran-7-yl)ethanone] showed a melting point of 94 to 95 °C.
For `COc1cc2c(C)c(Br)oc2c(C(=O)CBr)c1OC` [Compound 1e, 2-Bromo-1-(2-bromo-5,6-dimethoxy-3-methylbenzofuran-7-yl)ethanone], the IC50 [1] was 28 µM, the “reduction of viability of HeLa cells” value [1] was “more than 50%” and the IC50 (K562 (leukemia) cells) was 41 µM. The IC50 (K562 (leukemia) cells; Homo sapiens, K562, 48 h) was under 50 µM, the “reduction of viability of K562 cells” value (K562 (leukemia) cells) was “more than 50%” and the IC50 (MOLT-4 (leukemia) cells) was 70 µM. The “reduction of viability of MOLT-4 cells” value (MOLT-4 (leukemia) cells) was “more than 50%”, the IC50 [2] was 30 µM and the “cytotoxicity against human normal endothelial cells” value [2] was “cytotoxic”. For the same compound, the “increase in the activity of caspase 3/7” value [3] was “five-fold” and the “inhibition … with BamH1 / interaction with DNA” value [4] was “to some extent, interact with DNA”.
With `CC(=O)c1cc2oc(C)c(C(N)=O)c2cc1O` [Compound 2a, 6-Acetyl-5-hydroxy-2-methylbenzofuran-3-carboxamide] the “cytotoxic properties toward cancer cell lines” value (cancer cell lines) was “did not show the cytotoxic properties; also recorded: loss of cytotoxic properties”.
For `CC(=O)c1cc2oc(C)c(C(N)=O)c2c(Br)c1O` [Compound 2b, 6-Acetyl-4-bromo-5-hydroxy-2-methylbenzofuran-3-carboxamide], the “cytotoxic properties toward cancer cell lines” value (cancer cell lines) was “loss of cytotoxic properties”.
`CC(=O)c1cc2oc(C)c(C(=O)O)c2c(Br)c1O` [Compound 2e, 6-Acetyl-4-bromo-5-hydroxy-2-methylbenzofuran-3-carboxylic acid] showed a melting point of 196 to 197 °C.
In the case of `COC(=O)c1c(C)oc2cc(C(O)C(Br)Br)c(OC)cc12` (stereo not shown) [Compound 3a, Methyl 6-(2,2-dibromo-1-hydroxyethyl)-5-methoxy-2-methylbenzofuran-3-carboxylate], the IC50 [1] is reported as 80 µM, the “reduction of viability of HeLa cells” value [1] is reported as “more than 50%” and the IC50 (K562 (leukemia) cells; Homo sapiens, K562, 48 h) is reported as 85 µM. For the same compound, the “reduction of viability of K562 cells” value (K562 (leukemia) cells) was “more than 50%”, the IC50 (MOLT-4 (leukemia) cells) was 85 µM and the “reduction of viability of MOLT-4 cells” value (MOLT-4 (leukemia) cells) was “more than 50%”. For the same compound, the IC50 [2] was 67 µM, the “cytotoxicity against human normal endothelial cells” value [2] was “cytotoxic” and the melting point was 170 to 172 °C.
In the case of `COc1cc2c(C(=O)O)c(C)oc2cc1C(C)=O` [Compound 3b, 6-Acetyl-5-Methoxy-2-Methylbenzofuran-3-Carboxylic Acid], the melting point is reported as 249 to 250 °C.
With `COc1cc2c(C(N)=O)c(C)oc2cc1C(C)=O` [Compound 3c, 6-Acetyl-5-methoxy-2-methylbenzofuran-3-carboxamide] the “cytotoxic properties toward cancer cell lines” value (cancer cell lines) was “did not show the cytotoxic properties; also recorded: loss of cytotoxic properties” and the melting point was 223 to 224 °C.
In the case of `COC(=O)c1c(CBr)oc2cc(C(C)=O)c(OC)cc12` [Compound 3d, Methyl 6-acetyl-2-(bromomethyl)-5-methoxybenzofuran-3-carboxylate], the IC50 [1] is reported as 35 µM, the “reduction of viability of HeLa cells” value [1] is reported as “more than 50%” and the IC50 (K562 (leukemia) cells) is reported as 28 µM. For the same compound, the IC50 (K562 (leukemia) cells; Homo sapiens, K562, 48 h) was under 50 µM, the “reduction of viability of K562 cells” value (K562 (leukemia) cells) was “more than 50%” and the IC50 (MOLT-4 (leukemia) cells) was 55 µM. The “reduction of viability of MOLT-4 cells” value (MOLT-4 (leukemia) cells) was “more than 50%”, the IC50 [2] was 6 µM and the “cytotoxicity against human normal endothelial cells” value [2] was “cytotoxic”. The “increase in the activity of caspase 3/7” value [3] was “minimal, if any” and the “decrease of cytotoxicity against human cancer cells compared to the lead compounds VIII-X” value (cancer cell lines; compared to lead compounds VIII-X) was 5–10 folds.
In the case of `COc1cccc2c1C(=O)c1c(O)c3c(c(O)c1C2=O)C[C@@](O)(C(C)=O)C[C@@H]3O[C@H]1C[C@H](N)[C@H](O)[C@H](C)O1` [Daunorubicin, reference compound], the “inhibition … with BamH1 / interaction with DNA” value [4] is reported as “completely inhibited”.
In the case of `CN[C@@H]1C[C@H]2O[C@@](C)([C@@H]1OC)n1c3ccccc3c3c4c(c5c6ccccc6n2c5c31)C(=O)NC4` [staurosporine, reference compound], the “increase in the activity of caspase 3/7” value [3] is reported as “significantly increased”.
